pEC50, pIC50: −log10 of the molar value. Like-named read-outs stand apart in the source and are kept apart here.
What was measured:
[1] = tested on: C. parvum; assay: Inhibition of C. parvum proliferation; format: cell-based; settings: Cryptosporidium parvum, read-out: Inhibit Parasite Prolif. (EC50, μM) C. parvum
[2] = Cell toxicity in HepG2; format: cell-based; settings: human, HepG2 cells (hepatocellular carcinoma); Table 4
Description: All compounds were assayed for inhibition of TgCDPK1 and CpCDPK1 and on the small-gatekeeper (Thr) human kinases, Src and Abl. Human cell toxicity was evaluated in two human cell lines, HepG2 (hepatocellular carcinoma) and CRL8155 (lymphoblast, spleen). hERG inhibition has been associated with long Q-T syndrome (cardiotoxicity), and the compounds were evaluated for hERG inhibitory activity.

[3] = Pharmacokinetic studies in mice; settings: mouse, in vivo, 10 mg/kg
[4] = Cytotoxicity against CRL8155 cell line; format: cell-based; settings: human, CRL8155 cells (lymphoblast, spleen); for pEC50: read-out: Cytotoxicity (CRL8155) EC50; for EC50: Table 4, read-out: Cell toxicity (EC50, μM) CRL 8155
[5] = target: hERG (Homo sapiens (Human), UniProt Q12809); assay: biochemical; format: binding
Chain of hERG (Q12809 whole entry): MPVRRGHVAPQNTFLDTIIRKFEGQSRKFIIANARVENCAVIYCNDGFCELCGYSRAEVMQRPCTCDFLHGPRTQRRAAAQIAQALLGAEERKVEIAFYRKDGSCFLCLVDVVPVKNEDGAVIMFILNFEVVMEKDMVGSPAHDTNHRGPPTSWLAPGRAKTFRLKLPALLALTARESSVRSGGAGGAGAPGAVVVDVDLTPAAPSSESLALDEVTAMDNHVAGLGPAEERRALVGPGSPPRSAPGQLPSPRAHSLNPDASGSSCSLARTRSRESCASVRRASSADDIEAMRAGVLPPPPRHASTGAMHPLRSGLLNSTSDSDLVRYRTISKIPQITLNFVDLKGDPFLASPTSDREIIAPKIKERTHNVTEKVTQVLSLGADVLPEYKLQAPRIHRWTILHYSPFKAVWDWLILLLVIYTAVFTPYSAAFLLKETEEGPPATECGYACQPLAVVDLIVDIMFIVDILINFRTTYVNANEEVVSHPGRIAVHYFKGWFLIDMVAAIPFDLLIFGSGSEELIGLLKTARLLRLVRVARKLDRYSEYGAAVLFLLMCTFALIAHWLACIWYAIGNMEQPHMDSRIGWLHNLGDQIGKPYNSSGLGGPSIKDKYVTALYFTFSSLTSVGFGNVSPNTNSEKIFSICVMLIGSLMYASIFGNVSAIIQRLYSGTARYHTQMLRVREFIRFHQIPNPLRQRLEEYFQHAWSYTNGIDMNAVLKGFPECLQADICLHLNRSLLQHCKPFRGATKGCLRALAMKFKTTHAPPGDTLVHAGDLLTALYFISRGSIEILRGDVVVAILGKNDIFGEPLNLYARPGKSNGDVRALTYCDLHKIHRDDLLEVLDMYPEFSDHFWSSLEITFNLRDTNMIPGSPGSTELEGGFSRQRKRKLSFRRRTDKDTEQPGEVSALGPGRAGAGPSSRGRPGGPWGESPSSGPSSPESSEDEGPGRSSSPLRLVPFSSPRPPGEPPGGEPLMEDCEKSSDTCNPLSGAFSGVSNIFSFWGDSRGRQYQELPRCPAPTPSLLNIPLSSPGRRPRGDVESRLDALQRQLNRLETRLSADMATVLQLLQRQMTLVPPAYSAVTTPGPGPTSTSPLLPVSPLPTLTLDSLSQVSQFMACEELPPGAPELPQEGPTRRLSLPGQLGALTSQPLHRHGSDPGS

[6] = target: TgCDPK1 (Toxoplasma gondii, UniProt Q9BJF5); assay: biochemical; settings: for pIC50: read-out: TgCDPK1 IC50
Chain of TgCDPK1 (Q9BJF5 1-507): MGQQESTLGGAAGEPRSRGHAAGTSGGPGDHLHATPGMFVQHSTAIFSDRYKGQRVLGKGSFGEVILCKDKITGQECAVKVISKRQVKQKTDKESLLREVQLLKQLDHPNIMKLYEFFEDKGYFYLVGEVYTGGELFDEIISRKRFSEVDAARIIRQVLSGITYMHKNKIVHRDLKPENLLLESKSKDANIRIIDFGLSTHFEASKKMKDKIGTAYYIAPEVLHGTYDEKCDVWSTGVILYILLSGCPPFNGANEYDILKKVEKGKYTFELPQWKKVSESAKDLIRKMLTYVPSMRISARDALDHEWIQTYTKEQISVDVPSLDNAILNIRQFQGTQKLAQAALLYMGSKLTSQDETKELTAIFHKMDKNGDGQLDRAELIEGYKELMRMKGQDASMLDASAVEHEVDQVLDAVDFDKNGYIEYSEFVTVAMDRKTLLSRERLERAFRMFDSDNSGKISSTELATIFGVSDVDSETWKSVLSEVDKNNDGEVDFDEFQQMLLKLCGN

[7] = target: Abl (Homo sapiens (Human), UniProt P00519); assay: biochemical
Chain of Abl (P00519 242-493): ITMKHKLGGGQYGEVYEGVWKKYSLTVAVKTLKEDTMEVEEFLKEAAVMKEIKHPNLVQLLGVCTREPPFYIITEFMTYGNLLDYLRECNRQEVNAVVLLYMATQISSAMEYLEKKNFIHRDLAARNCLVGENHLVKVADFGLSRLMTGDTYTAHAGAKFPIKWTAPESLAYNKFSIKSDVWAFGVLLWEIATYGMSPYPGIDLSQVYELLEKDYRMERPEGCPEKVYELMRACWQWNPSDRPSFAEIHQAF

[8] = target: Src (Homo sapiens (Human), UniProt P12931); assay: biochemical
Chain of Src (P12931 270-523): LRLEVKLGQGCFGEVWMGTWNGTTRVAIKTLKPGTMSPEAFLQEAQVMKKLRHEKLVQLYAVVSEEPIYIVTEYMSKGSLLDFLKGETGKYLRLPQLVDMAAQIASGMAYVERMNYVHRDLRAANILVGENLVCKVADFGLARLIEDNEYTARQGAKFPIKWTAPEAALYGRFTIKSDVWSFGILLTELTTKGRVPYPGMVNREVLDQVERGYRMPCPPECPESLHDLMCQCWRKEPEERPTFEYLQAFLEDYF

[9] = tested on: T. gondii; assay: Inhibition of T. gondii cell proliferation; format: cell-based; settings: Toxoplasma gondii; for pEC50: Table 3, read-out: T. gondii EC50
[10] = target: CpCDPK1 (Cryptosporidium parvum (strain Iowa II), UniProt A3FQ16); assay: biochemical; settings: for pIC50: Table 1, KinaseGlo, Syntide 2 peptide substrate, read-out: CpCDPK1 IC50; for IC50: Table 4, read-out: Enzyme Inhibition (IC50, μM) Cp CDPK1
Chain of CpCDPK1 (A3FQ16 1-538): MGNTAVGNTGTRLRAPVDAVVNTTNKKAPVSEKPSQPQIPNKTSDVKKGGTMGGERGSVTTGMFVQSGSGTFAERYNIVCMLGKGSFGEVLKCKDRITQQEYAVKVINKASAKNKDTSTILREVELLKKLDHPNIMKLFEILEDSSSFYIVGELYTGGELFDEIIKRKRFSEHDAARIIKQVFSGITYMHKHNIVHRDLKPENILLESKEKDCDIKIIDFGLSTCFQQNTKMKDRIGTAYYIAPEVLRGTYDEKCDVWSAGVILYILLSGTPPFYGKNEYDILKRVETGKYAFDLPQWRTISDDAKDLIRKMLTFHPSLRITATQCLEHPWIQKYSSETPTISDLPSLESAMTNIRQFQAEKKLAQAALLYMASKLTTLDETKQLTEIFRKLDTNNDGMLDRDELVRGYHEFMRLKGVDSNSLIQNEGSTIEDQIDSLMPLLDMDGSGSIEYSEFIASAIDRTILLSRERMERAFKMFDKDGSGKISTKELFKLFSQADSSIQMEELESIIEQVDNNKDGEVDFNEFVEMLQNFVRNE

[11] = Enzyme Inhibition (IC50, μM) SrcKD, Table 4
[12] = Table 1, KinaseGlo, Syntide 2 peptide substrate

| Compound | EC50 [2] [µM] | pIC50 [8] | pIC50 [10] | pEC50 ([4]; Table 3) | IC50 ([8]; Src IC50 (μM), Table 3) [µM] | pIC50 [6, 12] | pEC50 [9] | other results |
| --- | --- | --- | --- | --- | --- | --- | --- | --- |
| CCOc1ccc2cc(-c3nn(C(C)(C)C)c(N)c3C(N)=O)ccc2c1 [Compound 3, 5-amino-1-tert-butyl-3-(6-ethoxynaphthalen-2-yl)-1H-pyrazole-4-carboxamide] | > 40 |  |  |  |  |  |  | EC50 [1]: 0.05 µM |
| COc1ccc2cc(-c3nn(C(C)(C)C)c(N)c3C(N)=O)ccc2c1 [Compound 25, 5-amino-1-(tert-butyl)-3-(6-methoxynaphthalen-2-yl)-1H-pyrazole-4-carboxamide] | > 40 |  |  |  |  |  |  | EC50 [1]: 0.1 µM; AUC [3]: 5.94 µM·h; Cmax [3]: 3.1 µM; Tmax [3]: 30 min; pEC50 ([4]; Table 2): < 4.40; EC50 [4]: > 40 µM; pIC50 [5]: < 5.00 |
| CCCOc1ccc2cc(-c3nn(C(C)(C)C)c(N)c3C(N)=O)ccc2c1 [Compound 26, 5-amino-1-(tert-butyl)-3-(6-propoxynaphthalen-2-yl)-1H-pyrazole-4-carboxamide] | > 40 | 5.11 | 8.00 |  |  |  |  | EC50 [4]: 38 µM; IC50 ([6]; read-out: Enzyme Inhibition (IC50, μM) Tg CDPK1): 0.007 µM; pIC50 [6]: 8.15; pIC50 [7]: < 5.00; EC50 ([9]; Table 4, read-out: Inhibit Parasite Prolif. (EC50, μM) T. gondii): 0.37 µM; IC50 [10]: 0.01 µM |
| CC(C)(C)n1nc(-c2cnc3ccccc3c2)c(C(N)=O)c1N [Compound 38, 5-amino-1-(tert-butyl)-3-(quinolin-3-yl)-1H-pyrazole-4-carboxamide] |  |  | 8.15 |  |  |  |  | pEC50 ([4]; Table 2): < 4.40; pIC50 [6]: 8.22; IC50 ([8]; Src IC50 (μM), Table 2): > 10 µM |
| COc1ccc2cc(-c3nn(C(C)(C)C)c(N)c3C(N)=O)cnc2c1 [Compound 1543, 5-amino-1-tert-butyl-3-(7-methoxyquinolin-3-yl)-1H-pyrazole-4-carboxamide] | > 40 |  | 8.52 | < 4.40 | > 30 |  |  | EC50 [4]: > 40 µM; pIC50 [7]: < 5.00; IC50 [8, 11]: > 10 µM; IC50 [10]: 0.003 µM |
| CCCOc1ccc2cc(-c3nn(C(C)(C)C)c(N)c3C(N)=O)cnc2c1 [Compound 1566, 5-amino-1-tert-butyl-3-(7-propoxyquinolin-3-yl)-1H-pyrazole-4-carboxamide] | > 40 |  |  | < 4.40 | > 10 |  |  | EC50 [4]: 16 µM; pIC50 [7]: < 5.00; IC50 [8, 11]: > 10 µM |
| CCOc1ccc2cc(-c3nn(C4CCCCC4)c(N)c3C(N)=O)cnc2c1 [Compound 1571, 5-amino-1-cyclohexyl-3-(7-ethoxyquinolin-3-yl)-1H-pyrazole-4-carboxamide] | > 40 |  | 8.30 |  | > 10 |  |  | EC50 [4]: > 40 µM; pIC50 [7]: < 5.00; IC50 [8, 11]: 10 µM |
| CCOc1ccc2cc(-c3nn(C(C)C)c(N)c3C(N)=O)cnc2c1 [Compound 1572, 5-amino-3-(7-ethoxyquinolin-3-yl)-1-isopropyl-1H-pyrazole-4-carboxamide] | > 40 |  | 8.30 |  |  |  |  | EC50 [4]: > 40 µM |
| CCOc1ccc2cc(-c3nn(CC4CC4)c(N)c3C(N)=O)cnc2c1 [Compound 1598, 5-amino-1-(cyclopropylmethyl)-3-(7-ethoxyquinolin-3-yl)-1H-pyrazole-4-carboxamide] |  |  | 8.30 | < 4.40 | > 10 | 7.92 |  |  |
| CCOc1ccc2cc(-c3nn(C4CCCCC4)c(N)c3C(N)=O)ccc2n1 [Compound 1633, 5-amino-1-cyclohexyl-3-(2-ethoxyquinolin-6-yl)-1H-pyrazole-4-carboxamide] |  |  | 8.70 | < 4.40 | > 10 | 8.40 |  |  |
| CCOc1ccc2cc(-c3nn(CC4CC4)c(N)c3C(N)=O)ccc2n1 [Compound 1635, 5-amino-1-(cyclopropylmethyl)-3-(2-ethoxyquinolin-6-yl)-1H-pyrazole-4-carboxamide] |  |  | 8.52 | < 4.40 | > 10 | 8.22 |  |  |
| CC(C)(C)n1nc(-c2ccc3nc(OC4CCC4)ccc3c2)c(C(N)=O)c1N [Compound 1639, 5-amino-1-(tert-butyl)-3-(2-cyclobutoxyquinolin-6-yl)-1H-pyrazole-4-carboxamide] |  |  | 8.22 | < 4.40 | > 10 | 8.30 |  |  |
| CC(C)(C)n1nc(-c2ccc3nc(OC4CC4)ccc3c2)c(C(N)=O)c1N [Compound 1643, 5-amino-1-(tert-butyl)-3-(2-cyclopropoxyquinolin-6-yl)-1H-pyrazole-4-carboxamide] |  |  | 8.52 | < 4.40 | > 10 | 8.24 |  |  |
| CC(C)(CO)Cn1nc(-c2cnc3cc(OC4CCC4)ccc3c2)c(C(N)=O)c1N [Compound 1644, 5-amino-3-(7-cyclobutoxyquinolin-3-yl)-1-(3-hydroxy-2,2-dimethylpropyl)-1H-pyrazole-4-carboxamide] |  | < 5.00 | 8.30 | < 4.40 |  | 7.92 | 6.11 |  |
| CC(C)(CO)Cn1nc(-c2ccc3nc(OC4CCC4)ccc3c2)c(C(N)=O)c1N [Compound 1645, 5-amino-3-(2-cyclobutoxyquinolin-6-yl)-1-(3-hydroxy-2,2-dimethylpropyl)-1H-pyrazole-4-carboxamide] |  |  | 8.30 | < 4.40 | > 10 |  | 6.32 |  |
| NC(=O)c1c(-c2ccc3nc(OC4CCC4)ccc3c2)nn(C2CCCCC2)c1N [Compound 1646, 5-amino-3-(2-cyclobutoxyquinolin-6-yl)-1-cyclohexyl-1H-pyrazole-4-carboxamide] |  | < 5.00 | 7.89 | < 4.40 |  | 7.80 | 6.51 |  |
| NC(=O)c1c(-c2cnc3cc(OC4CCC4)ccc3c2)nn(C2CCCCC2)c1N [Compound 1647, 5-amino-3-(7-cyclobutoxyquinolin-3-yl)-1-cyclohexyl-1H-pyrazole-4-carboxamide] |  | < 5.00 | 8.10 | < 4.40 |  | 7.72 | 5.94 |  |
| NC(=O)c1c(-c2ccc3nc(OC4CCC4)ccc3c2)nn(C2CCCC2)c1N [Compound 1653, 5-amino-3-(2-cyclobutoxyquinolin-6-yl)-1-cyclopentyl-1H-pyrazole-4-carboxamide] |  | < 5.00 | 8.22 | < 4.40 |  | 7.92 | 6.68 |  |
| NC(=O)c1c(-c2ccc3nc(OC4CCC4)ccc3c2)nn(C2CCC2)c1N [Compound 1656, 5-amino-3-(2-cyclobutoxyquinolin-6-yl)-1-cyclobutyl-1H-pyrazole-4-carboxamide] |  | < 5.00 |  | < 4.40 |  | 8.15 | 7.16 |  |
| NC(=O)c1c(-c2cnc3cc(OC4CCC4)ccc3c2)nn(C2CCC2)c1N [Compound 1657, 5-amino-3-(7-cyclobutoxyquinolin-3-yl)-1-cyclobutyl-1H-pyrazole-4-carboxamide] |  | < 5.00 |  | < 4.40 |  | 7.92 | 6.16 |  |
| NC(=O)c1c(-c2cnc3cc(OC4CCC4)ccc3c2)nn(C2CCCC2)c1N [Compound 1658, 5-amino-3-(7-cyclobutoxyquinolin-3-yl)-1-cyclopentyl-1H-pyrazole-4-carboxamide] |  | < 5.00 | 8.40 | < 4.40 |  | 7.92 | 6.40 |  |

— patent US9518026B2, “5-aminopyrazole-4-carboxamide inhibitors of CDPK1 from T. gondii and C. parvum” (UNIVERSITY OF WASHINGTON THROUGH ITS CENTER FOR …, priority 2013, dated 2016)
